The values below come from ChEMBL document CHEMBL1201862, “PubChem BioAssay data set” (2004).

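The compound was tested at five concentrations on cells cultured in 96-well plates, with a 48-hour exposure period. Here, GI50 denotes the concentration required for 50% inhibition of growth.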 Activity calls are given as the source filed them. Rule as the data show it: active = GI50 up to about 1.1 µM and inactive = higher.

Test systems include ACHN; BT-549; CAKI-1; HL-60; HOP-92; Hs-578T; LOX IMVI; MDA-MB-231; Malme-3M; NCI/ADR-RES; PC-3; RPMI-8226; SF-268; SF-539; SK-MEL-2; SK-MEL-5; SN12C; SNB-19; SW-620; K562.
Assay in all cases: inhibition of tumour cell growth, NCI panel, 48 h

Take `Cc1occc1C(=S)Nc1ccc(Cl)c(C(=O)OC(C)C2CC2)c1` (stereo unspecified): the GI50 with ACHN was 17.3 µM (inactive); in the test on BT-549, 22.5 µM (inactive); with CAKI-1 it was 18.7 µM (inactive); with HL-60 it was 24.2 µM (inactive); with HOP-92, 23.5 µM (inactive); with Hs-578T it was 27.7 µM (inactive). The GI50 in the test on LOX IMVI is 19.4 µM (inactive); with MDA-MB-231 it was 17.4 µM (inactive); with Malme-3M, 16.4 µM (inactive); with NCI/ADR-RES it was 19.3 µM (inactive); in the test on PC-3, 18.9 µM (inactive); with RPMI-8226, 24.8 µM (inactive). In addition, the GI50 in the test on SF-268 was 22.6 µM (inactive); in the test with SF-539 it was 22.3 µM (inactive); in the test on SK-MEL-2, 18.3 µM (inactive); in the test with SK-MEL-5, 15.3 µM (inactive); in the test with SN12C, 18 µM (inactive); in the test with SNB-19 it was 17.3 µM (inactive). Besides, the GI50 in the test on SW-620 is 35.8 µM (inactive).

On to `CN(C)CCCSc1nc2c(c(=N)n1-c1ccccc1)c(=S)n(-c1ccccc1)c(=S)n2-c1ccccc1`, for which the GI50 was 1.82 µM (inactive) with ACHN; 1.68 µM (inactive) in the test with BT-549; 1.77 µM (inactive) in the test on CAKI-1; 0.798 µM (active) in the test with HL-60; 1.8 µM (inactive) in the test with HOP-92; 3.12 µM (inactive) in the test with Hs-578T. Also, the GI50 in the test with K562 is 0.459 µM (active); in the test with LOX IMVI it was 1.29 µM (inactive); in the test on MDA-MB-231, 1.61 µM (inactive); with Malme-3M it was 2.04 µM (inactive); in the test on NCI/ADR-RES it was 2.59 µM (inactive); in the test on PC-3 it was 1.75 µM (inactive). For the same compound, the GI50 in the test on RPMI-8226 was 0.39 µM (active); in the test with SF-268, 1.73 µM (inactive); in the test on SF-539, 2.52 µM (inactive); in the test on SK-MEL-2, 2.12 µM (inactive); in the test with SK-MEL-5, 1.91 µM (inactive); in the test on SN12C, 1.74 µM (inactive). For the same compound, the results for the GI50 with SNB-19 and in the test with SW-620 were 2.51 µM (inactive) and 1.79 µM (inactive), respectively.

In the case of `Cc1ccc(S(=O)(=O)NC2=NS(=O)(=O)c3cc(C)c(Cl)cc3S2)cc1`, the GI50 was > 100 µM (inactive) in the test with ACHN; > 100 µM (inactive) with BT-549; > 100 µM (inactive) with CAKI-1; > 100 µM (inactive) in the test with HL-60; 24.4 µM (inactive) in the test on HOP-92; > 100 µM (inactive) with Hs-578T. Further, the GI50 with K562 was 34.3 µM (inactive); in the test on LOX IMVI it was 62.2 µM (inactive); with MDA-MB-231 it was > 100 µM (inactive); with Malme-3M, 38.8 µM (inactive); in the test with NCI/ADR-RES, > 100 µM (inactive); in the test with PC-3, 45.5 µM (inactive). Moreover, the GI50 with RPMI-8226 was > 100 µM (inactive); with SF-268, > 100 µM (inactive); in the test on SF-539, 58.3 µM (inactive); in the test on SK-MEL-2 it was > 100 µM (inactive); in the test with SK-MEL-5 it was > 100 µM (inactive); in the test on SN12C, > 100 µM (inactive). Also, the values for the GI50 with SNB-19 and in the test on SW-620 were 75 µM (inactive) and 71.6 µM (inactive), respectively.

On to `CC1(C)N=C(N)N=C(N)N1c1ccc(CCCCc2ccc(Cl)cc2Cl)cc1`, for which the GI50 was 4.57 µM (inactive) in the test with ACHN; 1.85 µM (inactive) in the test with BT-549; 2.05 µM (inactive) with CAKI-1; 0.461 µM (active) in the test on HL-60; 4.08 µM (inactive) in the test on HOP-92; 4.67 µM (inactive) in the test on Hs-578T. Also, the GI50 in the test on K562 is 42.2 µM (inactive); with LOX IMVI it was 0.417 µM (active); in the test on MDA-MB-231 it was 2.07 µM (inactive); with Malme-3M it was 0.486 µM (active); in the test on NCI/ADR-RES, 93.5 µM (inactive); in the test on PC-3 it was 0.418 µM (active). Besides, the GI50 in the test with RPMI-8226 is 1.17 µM (inactive); with SF-268, 0.382 µM (active); in the test on SF-539, 0.929 µM (active); with SK-MEL-2, 0.887 µM (active); in the test on SK-MEL-5, 1.12 µM (inactive); in the test with SN12C, 0.502 µM (active). Further, the figures for the GI50 in the test on SNB-19 and in the test on SW-620 were 0.527 µM (active) and 0.356 µM (active), respectively.

For `CSc1nc(SC)c2c(C)c(Br)[nH]c2n1`, the GI50 in the test with ACHN, with BT-549, in the test on CAKI-1, with HL-60, with HOP-92 and with Hs-578T was > 100 µM (inactive) each time. Besides, the GI50 in the test on LOX IMVI, in the test with MDA-MB-231, in the test on Malme-3M, with NCI/ADR-RES, in the test on PC-3 and in the test on RPMI-8226 was > 100 µM (inactive) each time. Also, the GI50 was > 100 µM (inactive) in the test with SF-268; 54.6 µM (inactive) with SF-539; > 100 µM (inactive) in the test with SK-MEL-2; > 100 µM (inactive) in the test on SK-MEL-5; > 100 µM (inactive) in the test on SN12C; > 100 µM (inactive) in the test with SNB-19. Further, in the test with SW-620, the GI50 is > 100 µM (inactive).

Take `O=C(Nc1ccc(Cl)c(Cl)c1)N1N=C2c3ccccc3CCC2C1c1ccc(Cl)cc1` (stereo unspecified): the GI50 in the test with ACHN, with BT-549, in the test with CAKI-1, in the test on HL-60, in the test with HOP-92 and in the test with Hs-578T was > 100 µM (inactive) each time. Further, the GI50 in the test on K562, with LOX IMVI, in the test with MDA-MB-231, in the test with Malme-3M, in the test with NCI/ADR-RES and in the test on PC-3 was > 100 µM (inactive) in each case. Besides, the GI50 with RPMI-8226, in the test on SF-268, with SF-539, in the test on SK-MEL-2, with SK-MEL-5 and in the test with SN12C was > 100 µM (inactive) throughout. Further, the GI50 in the test with SNB-19 and in the test on SW-620 was > 100 µM (inactive) each time.

On to `COc1cccc(/C=C\c2ccnc3ccccc23)c1`, for which the GI50 with ACHN, in the test on BT-549, with CAKI-1, with HL-60, with HOP-92 and in the test with Hs-578T was > 10 µM (inactive) each time. Besides, the GI50 is > 10 µM (inactive) with K562; 9.51 µM (inactive) in the test with LOX IMVI; > 10 µM (inactive) with MDA-MB-231; > 10 µM (inactive) in the test with Malme-3M; > 10 µM (inactive) with NCI/ADR-RES; > 10 µM (inactive) in the test on PC-3. The GI50 with RPMI-8226, in the test with SF-268, in the test on SF-539, in the test with SK-MEL-2, with SK-MEL-5 and with SN12C was > 10 µM (inactive) each time. The GI50 in the test on SNB-19 and in the test with SW-620 was > 10 µM (inactive) each time.

On to `Cn1nc2c(c1N)Cc1c(nn(C)c1N)-c1ccccc1-2`, for which the GI50 with ACHN, in the test with BT-549, in the test with CAKI-1, in the test on HL-60, in the test with HOP-92 and in the test with Hs-578T was > 100 µM (inactive) throughout. For the same compound, the GI50 with K562, with LOX IMVI, with MDA-MB-231, in the test on Malme-3M, in the test with NCI/ADR-RES and in the test on PC-3 was > 100 µM (inactive) in each case. Besides, the GI50 in the test on RPMI-8226, with SF-268, with SF-539, with SK-MEL-2, in the test with SK-MEL-5 and with SN12C was > 100 µM (inactive) throughout. Also, the GI50 with SNB-19 and in the test with SW-620 was > 100 µM (inactive) throughout.

For the compound `COc1cc(C2SCC(=O)N2c2ccc(Cl)c(Cl)c2)cc(OC)c1OC` (stereo unspecified), the GI50 was 44.7 µM (inactive) in the test on BT-549; 27.5 µM (inactive) in the test on CAKI-1; 19.5 µM (inactive) with HL-60; 80.9 µM (inactive) in the test on HOP-92; > 100 µM (inactive) in the test on Hs-578T; 1.28 µM (inactive) in the test on K562. For the same compound, the GI50 is 17.7 µM (inactive) in the test with LOX IMVI; > 64.4 µM (inactive) in the test with MDA-MB-231; > 100 µM (inactive) in the test with Malme-3M; 37.2 µM (inactive) in the test on NCI/ADR-RES; 54.2 µM (inactive) in the test on PC-3; 31.8 µM (inactive) in the test on RPMI-8226. The GI50 is > 100 µM (inactive) with SF-268; 70.5 µM (inactive) in the test with SF-539; 30.2 µM (inactive) in the test on SK-MEL-2; 21.7 µM (inactive) in the test with SK-MEL-5; > 54.5 µM (inactive) with SN12C; > 100 µM (inactive) in the test on SNB-19. Moreover, in the test on SW-620, the GI50 is 48 µM (inactive).

`Oc1[nH]c(Nc2ccc(F)c(Cl)c2)nc2ncnc1-2`: the GI50 in the test on ACHN is > 100 µM (inactive); in the test on BT-549 it was > 100 µM (inactive); in the test with CAKI-1, > 100 µM (inactive); in the test on HL-60, > 100 µM (inactive); in the test with HOP-92, > 100 µM (inactive); in the test on Hs-578T it was 29.6 µM (inactive). Also, the GI50 in the test on LOX IMVI, with MDA-MB-231, in the test with Malme-3M, in the test with NCI/ADR-RES, in the test on PC-3 and in the test on RPMI-8226 was > 100 µM (inactive) throughout. Moreover, the GI50 in the test with SF-268, in the test with SF-539, with SK-MEL-2, with SK-MEL-5, in the test on SN12C and in the test on SNB-19 was > 100 µM (inactive) each time. The GI50 in the test on SW-620 was > 100 µM (inactive).
